In US9108983B2, “Pyrrole compounds, a process for their preparation and pharmaceutical compositions containing them” (LES LABORATOIRES SERVIER, priority 2013, dated 2015) one finds IC50 data, which are given here for 18 compounds.

Structures can show the parent of a compound that is named as a salt.

Test [1] deals with Bcl-2 protein (histag-Bcl-2, UniProtKB P10415) (Homo sapiens (Human), UniProt P10415). In words: Inhibition of Bcl-2 by the fluorescence polarisation technique. Format: binding. Particulars: incubation for 2 hours, read-out: IC50 (nM) Bcl-2 FP. Put shortly:
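Fluorescence polarisation competition: His-tagged Bcl-2 (2.50×10^−8 M final) with fluorescein-labelled peptide (1.00×10^−8 M final) in 10 mM Hepes, 150 mM NaCl, 0.05% Tween20, pH 7.4. Increasing compound concentrations were added. Polarisation was read after 2 h incubation.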
On the technique in general: Fluorescence polarisation rises when a labelled molecule tumbles more slowly, as on binding a larger partner.

Test [2] concerns RS4;11 leukaemia tumour line. Briefly: In vitro cytotoxicity (Microculture Tetrazolium Assay). Format: cell-based. The following applies: Homo sapiens, RS4-11, 48 h, RS4;11 cells, exposed for 48 hours, cell viability; read-out: IC50 (nM) MTT RS4;11. The procedure:
The cytotoxicity studies were carried out on the RS4;11 leukaemia tumour line.
The cells are distributed onto microplates and exposed to the test compounds for 48 hours.
The cell viability is then quantified by a colorimetric assay, the Microculture Tetrazolium Assay (Cancer Res., 1987, 47, 939-942).

Chain of Bcl-2 protein (P10415 whole entry): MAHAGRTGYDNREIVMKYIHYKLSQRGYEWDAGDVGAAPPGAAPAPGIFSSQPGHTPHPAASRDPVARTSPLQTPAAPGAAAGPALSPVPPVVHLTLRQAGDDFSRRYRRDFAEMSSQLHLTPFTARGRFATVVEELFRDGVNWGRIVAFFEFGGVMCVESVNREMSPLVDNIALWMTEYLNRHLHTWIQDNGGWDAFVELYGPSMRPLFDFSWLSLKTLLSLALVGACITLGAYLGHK

As for `Cc1c(C(=O)N(c2ccc(O)cc2)c2cc3ccn(C)c3cn2)cc(-c2cc(Cl)ccc2C(=O)N2Cc3ccccc3C[C@H]2CN2CCOCC2)n1C` [Example 389, 5-(5-Chloro-2-{[(3S)-3-(morpholin-4-ylmethyl)-3,4-dihydroisoquinolin-2(1H)-yl]carbonyl}phenyl)-N-(4-hydroxyphenyl)-1,2-dimethyl-N-(1-methyl-1H-pyrrolo[2,3-c]pyridin-5-yl)-1H-pyrrole-3-carboxamide hydrochloride], the IC50 (usually the concentration needed to halve the response being measured) in test [1] was found to be 14.7 nM; in test [2], 208 nM.
Take `Cc1c(C(=O)N(c2ccccc2)c2cnc3c(ccn3C)c2)cc(-c2cc(Cl)ccc2C(=O)N2Cc3ccccc3C[C@H]2CN2CCOCC2)n1C` [Example 390, 5-(5-Chloro-2-{[(3S)-3-(morpholin-4-ylmethyl)-3,4-dihydroisoquinolin-2(1H)-yl]carbonyl}phenyl)-1,2-dimethyl-N-(1-methyl-1H-pyrrolo[2,3-b]pyridin-5-yl)-N-phenyl-1H-pyrrole-3-carboxamide]: the values for the IC50 in test [1] and in test [2] were 21.2 nM and 173 nM, respectively.
Turning to `Cc1c(C(=O)N(c2ccc(O)cc2)c2ccc3c(ccn3C)n2)cc(-c2cc(Cl)ccc2C(=O)N2Cc3ccccc3C[C@H]2CN2CCOCC2)n1C` [Example 391, 5-(5-Chloro-2-{[(3S)-3-(morpholin-4-ylmethyl)-3,4-dihydroisoquinolin-2(1H)-yl]carbonyl}phenyl)-N-(4-hydroxyphenyl)-1,2-dimethyl-N-(1-methyl-1H-pyrrolo[3,2-b]pyridin-5-yl)-1H-pyrrole-3-carboxamide hydrochloride], the half-maximal inhibitory concentration (IC50) in test [1] stood at 30.3 nM; in test [2] it was 255 nM.
Regarding `Cc1c(C(=O)N(c2ccccc2)c2ccc(O)cc2)cc(-c2cc(Cl)ccc2C(=O)N2Cc3ccccc3C[C@H]2CCCN2CCOCC2)n1C` [Example 392, 5-(5-Chloro-2-{[(3R)-3-[3-(morpholin-4-yl)propyl]-3,4-dihydroisoquinolin-2(1H)-yl]carbonyl}phenyl)-N-(4-hydroxyphenyl)-1,2-dimethyl-N-phenyl-1H-pyrrole-3-carboxamide hydrochloride], the IC50 in test [1] came to 3.8 nM; in test [2] it was 11.4 nM.
Take `Cc1c(C(=O)N(c2ccc(O)cc2)c2cnc3c(ccn3C)c2)cc(-c2cc(Cl)ccc2C(=O)N2Cc3ccccc3C[C@H]2CCCN2CCOCC2)n1C` [Example 393, 5-(5-Chloro-2-{[(3R)-3-[3-(morpholin-4-yl)propyl]-3,4-dihydroisoquinolin-2(1H)-yl]carbonyl}phenyl)-N-(4-hydroxyphenyl)-1,2-dimethyl-N-(1-methyl-1H-pyrrolo[2,3-b]pyridin-5-yl)-1H-pyrrole-3-carboxamide hydrochloride]: the IC50 was 2.1 nM in test [1] and 1.95 nM in test [2].
As for `Cc1c(C(=O)N(c2ccc(O)cc2)c2cnc3c(c2)CCN3C)cc(-c2cc(Cl)ccc2C(=O)N2Cc3ccccc3C[C@H]2CCCN2CCOCC2)n1C` [Example 394, 5-(5-Chloro-2-{[(3R)-3-[3-(morpholin-4-yl)propyl]-3,4-dihydroisoquinolin-2(1H)-yl]carbonyl}phenyl)-N-(4-hydroxyphenyl)-1,2-dimethyl-N-(1-methyl-2,3-dihydro-1H-pyrrolo[2,3-b]pyridin-5-yl)-1H-pyrrole-3-carboxamide], the figures for the half-inhibitory concentration (IC50) in test [1] and in test [2] were 2.5 nM and 2.76 nM, respectively.
Regarding `COc1ccc(N(C(=O)c2cc(-c3cc(Cl)ccc3C(=O)N3Cc4ccccc4C[C@H]3CN3CCOCC3)n(C)c2C)c2ccc(O)cc2)cc1C#N` [Example 395, 5-(5-Chloro-2-{[(3S)-3-(morpholin-4-ylmethyl)-3,4-dihydroisoquinolin-2(1H)-yl]carbonyl}phenyl)-N-(3-cyano-4-methoxyphenyl)-N-(4-hydroxyphenyl)-1,2-dimethyl-1H-pyrrole-3-carboxamide hydrochloride], the IC50 in test [1] was 3.5 nM; in test [2], 7.57 nM.
As for `Cc1c(C(=O)N(c2ccc(O)c(F)c2)c2cnn(C)c2)cc(-c2cc3c(cc2C(=O)N2Cc4ccccc4C[C@H]2CN2CCOCC2)OCO3)n1C` [Example 396, N-(3-Fluoro-4-hydroxyphenyl)-1,2-dimethyl-N-(1-methyl-1H-pyrazol-4-yl)-5-(6-{[(3S)-3-(morpholin-4-ylmethyl)-3,4-dihydroisoquinolin-2(1H)-yl]carbonyl}-1,3-benzodioxol-5-yl)-1H-pyrrole-3-carboxamide hydrochloride], the half-inhibitory concentration (IC50) in test [1] worked out at 15.7 nM; in test [2], 116 nM.
As to `COc1ncc(N(C(=O)c2cc(-c3cc(Cl)ccc3C(=O)N3Cc4ccccc4C[C@H]3CN3CCOCC3)n(C)c2C)c2ccc(O)cc2)cn1` [Example 397, 5-(5-Chloro-2-{[(3S)-3-(morpholin-4-ylmethyl)-3,4-dihydroisoquinolin-2(1H)-yl]carbonyl}phenyl)-N-(4-hydroxyphenyl)-N-(2-methoxypyrimidin-5-yl)-1,2-dimethyl-1H-pyrrole-3-carboxamide], the results for the IC50 in test [1] and in test [2] were 4.5 nM and 37.1 nM, respectively.
Turning to `Cc1c(C(=O)N(c2ccc(O)cc2)c2cccc(C#N)c2)cc(-c2cc(Cl)ccc2C(=O)N2Cc3ccccc3C[C@H]2CN2CCOCC2)n1C` [Example 398, 5-(5-Chloro-2-{[(3S)-3-(morpholin-4-ylmethyl)-3,4-dihydroisoquinolin-2(1H)-yl]carbonyl}phenyl)-N-(3-cyanophenyl)-N-(4-hydroxyphenyl)-1,2-dimethyl-1H-pyrrole-3-carboxamide hydrochloride], the IC50 in test [1] was found to be 3.9 nM; in test [2], 13.4 nM.
As to `Cc1c(C(=O)N(c2ccc(O)c(F)c2)c2cnn(C)c2)cc(-c2cc(Cl)ccc2C(=O)N2Cc3ccccc3C[C@H]2CN2CCOCC2)n1C` [Example 399, 5-(5-Chloro-2-{[(3S)-3-(morpholin-4-ylmethyl)-3,4-dihydroisoquinolin-2(1H)-yl]carbonyl}phenyl)-N-(3-fluoro-4-hydroxyphenyl)-1,2-dimethyl-N-(1-methyl-1H-pyrazol-4-yl)-1H-pyrrole-3-carboxamide hydrochloride], the IC50 in test [1] worked out at 9.9 nM; in test [2], 155 nM.
`COC(=O)c1ccnc(N(C(=O)c2cc(-c3cc(Cl)ccc3C(=O)N3Cc4ccccc4C[C@H]3CN3CCOCC3)n(C)c2C)c2ccc(O)cc2)c1` [Example 400, Methyl 2-[{[5-(5-chloro-2-{[(3S)-3-(morpholin-4-ylmethyl)-3,4-dihydroisoquinolin-2(1H)-yl]carbonyl}phenyl)-1,2-dimethyl-1H-pyrrol-3-yl]carbonyl}(4-hydroxyphenyl)amino]pyridine-4-carboxylate hydrochloride]: the values for the IC50 in test [1] and in test [2] were 49 nM and 469 nM, respectively.
Consider `Cc1c(C(=O)N(c2ccc(O)cc2)c2ccc(F)c(C#N)c2)cc(-c2cc(Cl)ccc2C(=O)N2Cc3ccccc3C[C@H]2CN2CCOCC2)n1C` [Example 401, 5-(5-Chloro-2-{[(3S)-3-(morpholin-4-ylmethyl)-3,4-dihydroisoquinolin-2(1H)-yl]carbonyl}phenyl)-N-(3-cyano-4-fluorophenyl)-N-(4-hydroxyphenyl)-1,2-dimethyl-1H-pyrrole-3-carboxamide hydrochloride], for which the IC50 in test [1] amounted to 8 nM; in test [2] it was 24.3 nM.
The corresponding values for `Cc1c(C(=O)N(c2ccc(O)cc2)c2ccnc(C#N)n2)cc(-c2cc(Cl)ccc2C(=O)N2Cc3ccccc3C[C@H]2CN2CCOCC2)n1C` [Example 404, 5-(5-Chloro-2-{[(3S)-3-(morpholin-4-ylmethyl)-3,4-dihydroisoquinolin-2(1H)-yl]carbonyl}phenyl)-N-(2-cyanopyrimidin-4-yl)-N-(4-hydroxyphenyl)-1,2-dimethyl-1H-pyrrole-3-carboxamide hydrochloride] are 24.4 nM and 85.5 nM.
Consider `Cc1c(N(C(=O)c2cc(-c3ccccc3C(=O)N3Cc4ccccc4C[C@H]3CN3CCOCC3)n(C)c2C)c2ccc(O)cc2)cc(C#N)n1C` [Example 406, N-(5-Cyano-1,2-dimethyl-1H-pyrrol-3-yl)-N-(4-hydroxyphenyl)-1,2-dimethyl-5-(2-{[(3S)-3-(morpholin-4-ylmethyl)-3,4-dihydroisoquinolin-2(1H)-yl]carbonyl}phenyl)-1H-pyrrole-3-carboxamide hydrochloride], for which the IC50 in test [1] is 4.2 nM; in test [2], 10.6 nM.
In the case of `COc1ccc(C(=O)N2Cc3ccccc3C[C@H]2CN2CCOCC2)c(-c2cc(C(=O)N(c3ccc(O)c(F)c3)c3cnn(C)c3)c(C)n2C)c1` [Example 407, N-(3-Fluoro-4-hydroxyphenyl)-5-(5-methoxy-2-{[(3S)-3-(morpholin-4-ylmethyl)-3,4-dihydroisoquinolin-2(1H)-yl]carbonyl}phenyl)-1,2-dimethyl-N-(1-methyl-1H-pyrazol-4-yl)-1H-pyrrole-3-carboxamide hydrochloride], the figures for the IC50 in test [1] and in test [2] were 20.6 nM and 150 nM, respectively.
Take `COc1ccc(C(=O)N2Cc3ccccc3C[C@H]2CN2CCOCC2)c(-c2cc(C(=O)N(c3ccc(O)cc3)c3cc(C#N)n(C)c3C)c(C)n2C)c1` [Example 408, N-(5-Cyano-1,2-dimethyl-1H-pyrrol-3-yl)-N-(4-hydroxyphenyl)-5-(5-methoxy-2-{[(3S)-3-(morpholin-4-ylmethyl)-3,4-dihydroisoquinolin-2(1H)-yl]carbonyl}phenyl)-1,2-dimethyl-1H-pyrrole-3-carboxamide hydrochloride]: the half-inhibitory concentration (IC50) was determined as 5.4 nM in test [1] and 4.46 nM in test [2].
Consider `Cc1c(C(=O)N(c2ccc(O)cc2)c2cnc3c(ccn3C)c2)cc(-c2ccccc2C(=O)N2Cc3ccccc3C[C@H]2CN2CCOCC2)n1C` [Example 409, N-(4-Hydroxyphenyl)-1,2-dimethyl-N-(1-methyl-1H-pyrrolo[2,3-b]-pyridin-5-yl)-5-(2-{[(3S)-3-(morpholin-4-ylmethyl)-3,4-dihydroisoquinolin-2(1H)-yl]-carbonyl}phenyl)-1H-pyrrole-3-carboxamide hydrochloride], for which the IC50 is 12.2 nM in test [1] and 41.9 nM in test [2].
